Publication PMC10731658 (Chemical Research in Toxicology, 2023)

Legend:
HepG2 cells [1] = assay: Flow cytometric detection of cell death (Annexin V & Dead Cell Assay); assay type: cell-based, human; conditions: IC50 concentration
From the text: 2. Flow cytometric detection of cell death
The microcapillary flow cytometry (Muse™ Cell Analyzer, Luminex, Austin, TX) was used to determine cell death.
This method is based on detecting externalization of phosphatidylserine on the surface of cells undergoing apoptosis.
The technique allows quantitative analysis of non-apoptotic, early apoptotic, late apoptotic, and necrotic cells. The reagent mixture also contains the membrane non-permeable dye 7-aminoactinomycin D. This component distinguishes necrotic and late apoptotic cells from the live and early apoptotic cells. The measurement of cell death was carried out according to manufacturer instructions after 1, 4, and 24 h incubation with tested oxime reactivators and with oxime-free medium as an untreated control. During the first day of the experiment, cells were seeded into a 24-well plate (TPP) with a density of […]. After the incubation, cells from each well were collected into the polystyrene tube (TPP) and centrifuged for 5 min at 1000 × g at room temperature. The supernatant was discarded. The cell suspensions […]
were prepared in fresh medium DMEM. Afterward 100 μL of cell suspension were mixed with the 100 μL of Muse™ Annexin V & Dead Cell Assay reagent, and the samples were incubated for 20 min at room temperature in the dark.
Per measurement, 5000 cells were analyzed. Each experiment was performed in triplicates and repeated three independent times. The concentration of K048, K074, K075, and K203 oximes and TBHP (positive control) used in […]
After 1 h of incubation (Figure S-1.) with tested oxime reactivators and TBHP as the positive control, the percentage […]
A significant change in the percentage of
The amount of early apoptotic cells
. On the other hand, the percentage of late apoptotic cells was […]
control cells. The count of late apoptotic cells enlarged by 7.74, 4.71 , 4.17, 4.13, and 3.20 %, respectively. The statistical differences were also found in the percentage of necrotic cells in this time interval. The highest increment […]
K048, K074, K075, and K203 groups when compared with control.
K075, and K203 treated groups, respectively, when compared with control. Finally, the percentage of necrotic cells […]
Fig. S-1 The percentage of intact (white column), early (light grey column), late apoptotic (dark grey column), and necrotic HepG2 cells (black column) determined using microcapillary flow cytometry after 1 h, 4 h and 24 h treatment with oxime acetylcholinesterase reactivators or TBHP (positive control). Control represents the cells incubated with an oxime-free culture medium. One-way analysis of variance (ANOVA) followed by Dunnetʼs multiple comparison test was used for statistical analysis by GraphPad Prism 9 software version 9.3.0. Data are expressed as means ± standard deviation (SD) of three independent measurements (n = 3). Significant differences between oxime-treated and untreated control groups (p ≤ 0.05) and marked by asterisk (*).
3. Stability of oximes in DMEM medium at 37 °C over 24 hours
The stability of oximes K048, K074, K075, and K203 in DMEM medium, with concentrations corresponding to their […]
UV, following the chromatographic conditions described by Vanova et al. (2021)13. The results over the tested time […]
Fig. S-2 Data are expressed in percentage as means ± standard deviation (SD) of three independent measurements […]

HepG2 cells [2] = assay: Intracellular RONS detection with DHE fluorescent probe; assay type: cell-based, human; conditions: IC50 concentration
Experimental: Two different fluorescent dyes, i.e., 2,7-dichlorodihydrofluorescein diacetate (DCFH-DA, Cayman Chemicals Company, Ann Arbor, MI) and dihydroethidium (DHE, Sigma-Aldrich, St. Louis, MO) were utilized for the determination of intracellular levels of RONS after 1, 4, and 24 h of incubation with tested oxime reactivators or TBHP (positive control). Cells incubated with oxime-free DMEM represented untreated control. After the incubation, the experimental medium was removed and replaced with a solution of DCFH-DA or DHE at concentrations of 20 and 5 μmol/L, respectively. The cells were subsequently incubated at 37 °C in a CO2 incubator for 45 min. Afterward, the fluorescence intensity of each well was measured using a Spark multimode microplate reader at an excitation wavelength of 485 nm for DCFH-DA or 528 nm for the DHE probe and an emission wavelength of 535 or 590 nm, respectively. Each experiment was carried out in triplicate and repeated three independent times.
The toxicological indices IC50 were calculated from control-subtracted triplicates using nonlinear regression (four parameters) using GraphPad Prism 9 software version 9.3.0 (GraphPad Software Inc., San Diego, CA). One-way analysis of variance (ANOVA) followed by Dunnetʼs multiple comparison test was used for RONS, MDA, NP-SH, and NP-SS-NP statistical analysis by GraphPad Prism 9 software, version 9.3.0. Data are expressed as means ± standard deviation (SD) of three independent measurements (n = 3). Significant differences between oxime-treated and untreated control groups (p ≤ 0.05) were marked by an asterisk (*).

rat plasma = conditions: in vivo; cited from earlier work

NC(=O)c1cc[n+](CCCC[n+]2ccc(C=NO)cc2)cc1.[Br-].[Br-] [K048, 4-carbamoyl-1-(4-(4-((hydroxyimino)methyl)pyridin-1-ium-1-yl)butyl)pyridin-1-ium dibromide]
decrease in percentage of intact (live) cells vs control (HepG2 cells [1]; 1 h): ~9.71%
increase in early apoptotic cells vs control (HepG2 cells [1]; 1 h): about 5.05%
increase in late apoptotic cells vs control (HepG2 cells [1]; 1 h): 4.17%
decrease in percentage of live cells vs control (HepG2 cells [1]; 4 h): 11.2%
increase in early apoptotic cells vs control (HepG2 cells [1]; 4 h): 5.72%
increase in late apoptotic cells vs control (HepG2 cells [1]; 4 h): 4.35%
increase in necrotic cell population vs control (HepG2 cells [1]; 4 h): 1.17%
decrease in percentage of intact cells vs control (HepG2 cells [1]; 24 h): 45.6%
increase in early apoptotic cells vs control (HepG2 cells [1]; 24 h): 18.2%
increase in late apoptotic cells vs control (HepG2 cells [1]; 24 h): 26.2%
increase of RONS (DHE probe) vs negative control (HepG2 cells [2]; 4 h incubation): 25.8%
signs of oxidative stress (TBARS, superoxide dismutase activity) (rat plasma): no signs of oxidative stress

O/N=C/c1cc[n+](CCCC[n+]2ccc(/C=N/O)cc2)cc1 [K074, 1,1′-(butane-1,4-diyl)bis(4((hydroxyimino)methyl)pyridine-1-ium) dibromide]
decrease in percentage of intact (live) cells vs control (HepG2 cells [1]; 1 h): ~8.85%
increase in early apoptotic cells vs control (HepG2 cells [1]; 1 h): ~2.45%
increase in late apoptotic cells vs control (HepG2 cells [1]; 1 h): 4.71%
increase in necrotic cells vs control (HepG2 cells [1]; 1 h): 1.69%
decrease in percentage of live cells vs control (HepG2 cells [1]; 4 h): 8.3%
increase in early apoptotic cells vs control (HepG2 cells [1]; 4 h): 4.17%
increase in late apoptotic cells vs control (HepG2 cells [1]; 4 h): 3.47%
increase in necrotic cell population vs control (HepG2 cells [1]; 4 h): 0.67%
decrease in percentage of intact cells vs control (HepG2 cells [1]; 24 h): 45.5%
increase in early apoptotic cells vs control (HepG2 cells [1]; 24 h): 14.1%
increase in late apoptotic cells vs control (HepG2 cells [1]; 24 h): 31.3%
increase of RONS (DHE probe) vs negative control (HepG2 cells [2]; 4 h incubation): 33.4%
increase of RONS (DHE probe) vs negative control (HepG2 cells [2]; 24 h incubation): 42.8%
